Assay results published in patent US20250263370A1 (Tay Therapeutics Limited, priority 2022, published 2025).
≈ marks a conversion by molar mass, not a printed value.

Assays:
[1] = Intrinsic clearance in liver microsomes, rat; format: in vitro ADME; settings: rat, liver microsomes, pH 7.4, rat liver microsomes, Method 1; read-out: Half-Life (T1/2) (min), Rat
Procedure, shortened: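 Compound at 1 μM (0.1–1% DMSO) incubated at 37 °C with mouse or rat liver microsomes (0.5 mg/mL protein) and 1 mM NADPH in PBS pH 7.4; samples taken up to 60 min and quenched in cold acetonitrile. LC-MS/MS of percent remaining gave half-life and CLint; no-NADPH controls run.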

[2] = Plasma stability assay, rat plasma; format: in vitro ADME; settings: Method 1 (5 μM)
Procedure, shortened: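 Compound at 5 μM final (0.5% DMSO) in one protocol or 10 μM (2% DMSO) in the other, incubated in plasma at 37° C.; samples taken 0–120 min and quenched with cold acetonitrile plus internal standard. LC-MS/MS gives percent remaining relative to the 0-min sample.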

[3] = Thermodynamic solubility in FaSSIF pH 6.5 buffer; format: physicochemical; settings: FaSSIF buffer, 25 °C, pH 6.5, fassif, thermodynamic from solid, Method 1 (UV-vis, 25° C., 24 hrs)
Protocol: FaSSIF v2 buffer is freshly prepared prior to use according to the suppliers' instructions and the pH adjusted to 6.5 using 1 M NaOH or 1 M HCl as required. From 1 mM working solution of test compound in DMSO, the λmax of the test compound is determined by scanning from 200 nm to 700 nm, in 1 nm steps with an EPOCH UV/Visible spectrophotometer (Biotek Instruments Inc.). A 12-point standard curve of compound concentration versus absorption at λmax is generated via two-fold serial dilutions of the 1 mM working solution with DMSO. Approximately 1 mg of test compound is accurately weighed into an Eppendorf tube and the appropriate volume of FaSSIF buffer is added to make a nominal concentration of 1 mg/mL. The tube is incubated on a rotator at 20 rpm, 25° C. for 24 hrs. Samples are then filtered using 0.45 μm filters (Sartorious, CAT #1776C) and the filtrate subjected to UV-vis spectroscopy analysis. The absorption at λmax is compared to the standard curve to determine the concentration of compound in solution after 24 hours.
FaSSIF buffer was prepared according to the suppliers' instructions and the pH adjusted to 6.5 using 1 M NaOH or 1 M HCl as required. […] A stir stick was added to each vial and vials sealed with a moulded PTDE/SIL 96-well plate cover. The plate was shaken at 25° C. at 1,100 rpm using an Eppendorf Thermomixer Comfort plate shaker. The plates were filtered using a vacuum manifold and diluted with a mixture of H2O and acetonitrile containing internal standard. The concentration of the test compound in the filtrate was determined by LCMS analysis with reference to the internal standards to determine the solubility in the buffer.

With `CNC(=O)c1[nH]c(C(=O)NC2CCC2)cc1O[C@@H](C)c1ccccc1` (stereo in doubt) [Example 101, N^5-cyclobutyl-N^2-methyl-3-(1-phenylethoxy)-1H-pyrrole-2,5-dicarboxamide] the half-life at 1 μM [1] was 58 min, the “Plasma Stability (% remaining at 120 minutes), Rat” value [2] was 61% and the solubility thermodynamic at 24 h [3] was 193 µM (≈ 65.9 µg/mL).
